The values below are quoted from earlier work in patent US12472272B2, “Radiolabelled compounds for diagnosis or treatment of prostate-specific membrane antigen- expressing cancer” (PROVINCIAL HEALTH SERVICES AUTHORITY, priority 2019, dated 2025).

Data set [1] concerns tumor. Particulars: Kuo et al. 2018, cited from earlier work.
Data set [2] relates to metastatic prostate cancer. Particulars: cited from earlier work.

Where only a bound is given, the exact number is not on record here.

Consider `O=C([O-])CN1CCN(CC(=O)[O-])CCN(CC(=O)NCC2CCC(C(=O)N[C@@H](Cc3ccc4ccccc4c3)C(=O)NCCCC[C@H](NC(=O)N[C@@H](CCC(=O)O)C(=O)O)C(=O)O)CC2)CCN(CC(=O)[O-])CC1.[177Lu+3]` (stereo partly shown) [^177Lu-PSMA-617], for which the tumor uptake in data set [1] (120 h post-injection) is reported as ~8 % ID/g. Besides, the peaked tumor uptake in data set [1] (reported previously) is listed as ~15 % ID/g. Further, in data set [2] (human, in vivo), the complete response rate was < 7%, the “patients with progressive disease after treatment” value is recorded as “up to 33%” and the side effects result is recorded as “without severe side effects”. For the same compound, the “patients having >50% reduction in PSA levels” value in data set [2] (metastatic prostate cancer) is recorded as 32-60%. Further, in data set [2] (phase 2 Australian study, patients with measurable nodal or visceral disease), the objective response is on record as 82%.
